Laboratory results as given in ChEMBL document CHEMBL1201862, “PubChem BioAssay data set” (2004).
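Briefly, cells in 96-well plates were exposed to five compound concentrations for 48 h, and endpoints were estimated by linear interpolation. Here, GI50 denotes the concentration required for 50% inhibition of growth.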 Active and inactive are the calls of the source. Rule as the data show it: active = GI50 up to about 1.1 µM and inactive = higher.

What was measured:
Experiment in all cases: inhibition of tumour cell growth, NCI panel, 48 h
A498 = system: A498
HCT-116 = system: HCT-116
HCT-15 = system: HCT-15
HOP-62 = system: HOP-62
IGROV-1 = system: IGROV-1
M14 = system: M14
MDA-MB-435 = system: MDA-MB-435
NCI-H23 = system: NCI-H23
NCI-H460 = system: NCI-H460
OVCAR-4 = system: OVCAR-4
OVCAR-8 = system: OVCAR-8
SNB-19 = system: SNB-19
SNB-75 = system: SNB-75
U-251 = system: U-251
UO-31 = system: UO-31
NCI-H522 = system: NCI-H522
OVCAR-3 = system: OVCAR-3
OVCAR-5 = system: OVCAR-5
SN12C = system: SN12C
SF-539 = system: SF-539

SMILES	GI50 (A498)	GI50 (HCT-116)	GI50 (HCT-15) [µM]	GI50 (HOP-62)	GI50 (IGROV-1)	GI50 (M14)	GI50 (MDA-MB-435)	GI50 (NCI-H23)	GI50 (NCI-H460)	GI50 (OVCAR-4)	GI50 (OVCAR-8)	GI50 (SNB-19)	GI50 (SNB-75)	GI50 (U-251)	GI50 (UO-31)	GI50 (NCI-H522)	GI50 (OVCAR-3)	GI50 (OVCAR-5)	GI50 (SN12C)	GI50 (SF-539)
COc1cc([C@@H]2c3cc4c(cc3[C@@H](NCCNCCO)[C@H]3COC(=O)[C@H]23)OCO4)cc(OC)c1O	3.85 µM (inactive)	2 µM (inactive)	34.6	1.2 µM (inactive)	1.3 µM (inactive)	3.48 µM (inactive)	9.44 µM (inactive)	1.08 µM (active)	0.0951 µM (active)	14.4 µM (inactive)	1.81 µM (inactive)	0.836 µM (active)	1.19 µM (inactive)	0.813 µM (active)	15.4 µM (inactive)					
O=C(O)c1cc2ccccc2c(/N=N/c2ccccc2)c1O	33.7 µM (inactive)	35.4 µM (inactive)	27.9	14.8 µM (inactive)	34.1 µM (inactive)	14.9 µM (inactive)	15.1 µM (inactive)	16.7 µM (inactive)		> 100 µM (inactive)	37.2 µM (inactive)	26.1 µM (inactive)	19.8 µM (inactive)	12.8 µM (inactive)	31.2 µM (inactive)	26.6 µM (inactive)	26.2 µM (inactive)	24.9 µM (inactive)	23.3 µM (inactive)	
CCOC(=O)CCC(C(=O)OCC)n1nnc2ccc(Nc3c(C)[n+]([O-])c4cc(Cl)ccc4[n+]3[O-])cc21 (centres undefined)		25.1 µM (inactive)	22.8	31.9 µM (inactive)	27.7 µM (inactive)	19 µM (inactive)	19.2 µM (inactive)	24.8 µM (inactive)	35.3 µM (inactive)	18.3 µM (inactive)	21.5 µM (inactive)	> 100 µM (inactive)	44.7 µM (inactive)	51.8 µM (inactive)	34.8 µM (inactive)	19.5 µM (inactive)	17.7 µM (inactive)	46.5 µM (inactive)	24.5 µM (inactive)	19.9 µM (inactive)
c1ccc(COc2ncccc2C2SCCCS2)cc1	> 100 µM (inactive)	> 100 µM (inactive)	> 100	> 100 µM (inactive)	> 100 µM (inactive)	> 100 µM (inactive)	> 100 µM (inactive)	> 100 µM (inactive)		> 100 µM (inactive)	> 100 µM (inactive)	> 100 µM (inactive)		> 100 µM (inactive)	> 100 µM (inactive)	> 100 µM (inactive)	> 100 µM (inactive)	> 100 µM (inactive)	> 100 µM (inactive)	67.3 µM (inactive)
Cc1ccc(O)c(C2=CC(c3cccc(Br)c3)SC(=N)N2)c1 (centres undefined)		17.3 µM (inactive)	14.5	21.6 µM (inactive)	18.8 µM (inactive)	24.3 µM (inactive)	18.7 µM (inactive)	25.6 µM (inactive)	20.5 µM (inactive)	28.9 µM (inactive)	35.2 µM (inactive)	13.6 µM (inactive)	19.5 µM (inactive)	17.5 µM (inactive)	25 µM (inactive)	16 µM (inactive)	39.5 µM (inactive)	29.5 µM (inactive)	20.8 µM (inactive)	22.4 µM (inactive)
CC(=O)Nc1ccc2c(c1)/C(=C\c1ccc([N+](C)(C)C)cc1)c1ccccc1-2	42.1 µM (inactive)	85.3 µM (inactive)	> 100	48.3 µM (inactive)	35.4 µM (inactive)	16 µM (inactive)	36.2 µM (inactive)	64.4 µM (inactive)	34.9 µM (inactive)	35.3 µM (inactive)	41.7 µM (inactive)	23.6 µM (inactive)	28.1 µM (inactive)	18.4 µM (inactive)	29.6 µM (inactive)	32.9 µM (inactive)	36.5 µM (inactive)	18.8 µM (inactive)	31 µM (inactive)	
Cc1cccc(Nc2nc3ccccc3nc2NS(=O)(=O)c2ccccc2)c1		27.4 µM (inactive)	16	27.5 µM (inactive)	19.9 µM (inactive)	38.3 µM (inactive)	46.6 µM (inactive)	18.3 µM (inactive)	15.6 µM (inactive)	2.14 µM (inactive)	29.3 µM (inactive)	18.1 µM (inactive)	14.4 µM (inactive)	14.6 µM (inactive)	15.1 µM (inactive)	17.3 µM (inactive)	19 µM (inactive)	> 100 µM (inactive)	22.2 µM (inactive)	33.8 µM (inactive)
COc1cc2c(cc1OC)OC(c1c(OC)ccc(OC)c1O)CC2 (centres undefined)	> 100 µM (inactive)	> 100 µM (inactive)	> 100	> 100 µM (inactive)	> 100 µM (inactive)	> 100 µM (inactive)	> 100 µM (inactive)	> 100 µM (inactive)	> 100 µM (inactive)	87.3 µM (inactive)	> 100 µM (inactive)	> 100 µM (inactive)	> 100 µM (inactive)	> 100 µM (inactive)	> 100 µM (inactive)		35.1 µM (inactive)	> 100 µM (inactive)		73.6 µM (inactive)
O=C(NCc1ccc(Cl)cc1)c1cc2sccc2nc1C(F)(F)F		33.3 µM (inactive)		22.3 µM (inactive)	29.6 µM (inactive)	> 100 µM (inactive)	> 100 µM (inactive)	45.5 µM (inactive)		19.8 µM (inactive)	26.4 µM (inactive)	22.5 µM (inactive)		18.9 µM (inactive)	30.5 µM (inactive)	29.7 µM (inactive)	26.9 µM (inactive)	> 100 µM (inactive)	44.8 µM (inactive)	27.7 µM (inactive)
CCOP(=O)(Nc1ccccc1P(=O)(OCC)OCC)OCC	> 100 µM (inactive)	> 100 µM (inactive)	> 100	> 100 µM (inactive)	> 100 µM (inactive)	> 100 µM (inactive)	> 100 µM (inactive)	> 100 µM (inactive)	> 100 µM (inactive)	> 100 µM (inactive)	> 100 µM (inactive)	> 100 µM (inactive)	> 100 µM (inactive)	> 100 µM (inactive)	> 100 µM (inactive)	> 100 µM (inactive)	> 100 µM (inactive)	> 100 µM (inactive)		
NCCCN(CCCN)CCc1cn(C(=O)c2ccccc2)cn1		4.86 µM (inactive)	7.78	7.74 µM (inactive)	4.19 µM (inactive)	4.94 µM (inactive)	5.73 µM (inactive)	13.2 µM (inactive)	15.7 µM (inactive)	4.93 µM (inactive)	16.9 µM (inactive)	15.1 µM (inactive)	6.07 µM (inactive)	14.4 µM (inactive)		10 µM (inactive)	2.69 µM (inactive)	16.2 µM (inactive)	6.41 µM (inactive)	13.2 µM (inactive)
CN1CCN(c2ccc3nc(-c4cc(O)c5c(nc(CO)n5C)c4O)[nH]c3n2)CC1		41.9 µM (inactive)	> 100	52 µM (inactive)	64.6 µM (inactive)	34.7 µM (inactive)	18.7 µM (inactive)	64.3 µM (inactive)	55.6 µM (inactive)	19.5 µM (inactive)	28.6 µM (inactive)	52.2 µM (inactive)	20.6 µM (inactive)	15.1 µM (inactive)	55.1 µM (inactive)	20.1 µM (inactive)	26.1 µM (inactive)	> 100 µM (inactive)	16.7 µM (inactive)	17.4 µM (inactive)
Cc1cc(C)c2c(-c3ccccc3)cc(=O)[nH]c2c1	> 100 µM (inactive)	> 100 µM (inactive)	> 100	> 100 µM (inactive)	> 100 µM (inactive)	> 100 µM (inactive)	> 100 µM (inactive)	> 100 µM (inactive)	> 100 µM (inactive)	> 100 µM (inactive)	> 100 µM (inactive)		> 100 µM (inactive)	> 100 µM (inactive)		> 100 µM (inactive)	> 100 µM (inactive)	> 100 µM (inactive)	> 100 µM (inactive)	
COc1cc2c(oc(=O)c3c4occc4cc(OC)c23)c2cccc(O)c12	> 100 µM (inactive)	> 100 µM (inactive)	> 100	> 100 µM (inactive)	> 100 µM (inactive)	> 100 µM (inactive)		> 100 µM (inactive)	> 100 µM (inactive)	> 100 µM (inactive)	> 100 µM (inactive)	> 100 µM (inactive)	83.6 µM (inactive)	> 100 µM (inactive)	> 100 µM (inactive)	> 100 µM (inactive)	> 100 µM (inactive)	> 100 µM (inactive)	> 100 µM (inactive)	> 100 µM (inactive)
CCSC1=N/C(=C\c2ccco2)C(Nc2ccc(C)cc2)=N1	> 100 µM (inactive)	> 100 µM (inactive)	> 100	> 100 µM (inactive)	60.5 µM (inactive)	> 100 µM (inactive)	> 100 µM (inactive)	> 100 µM (inactive)			> 100 µM (inactive)	> 100 µM (inactive)	> 100 µM (inactive)	> 100 µM (inactive)	> 100 µM (inactive)	> 100 µM (inactive)	> 100 µM (inactive)	> 100 µM (inactive)	> 100 µM (inactive)	
